Laboratory results published in US6689773B2, “Uracil substituted phenyl sulfamoyl carboxamides” (BASF Aktiengesellschaft, priority 2000, dated 2004).

What was measured:
Assay type in all cases: in vivo
[1] = system: ALOMY, Blackgrass, Alopecurus myosuroides; test: Preemergence herbicidal evaluation (Example 148); settings: rating scale 0-9, two to four weeks after treatment
How it was run: (§1)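 Sow seed–soil mix onto ~1 in soil; spray aqueous acetone compound solution (~0.125–0.250 kg/ha equivalent); keep on greenhouse benches under standard watering; score injury visually after 2–4 weeks.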

[2] = system: DIGSA, Crabgrass, (Hairy) L, Digitaria sanguinalis, (L)Scop; test: Preemergence herbicidal evaluation (Example 148); settings: rating scale 0-9, two to four weeks after treatment
How it was run: as §1

[3] = system: ECHCG, Barnyardgrass, Echinochloa crusgalli, (L.)Beau; test: Preemergence herbicidal evaluation (Example 148); settings: rating scale 0-9, two to four weeks after treatment
How it was run: as §1

[4] = system: XANST, Cocklebur, Xanthium strumariam; test: Preemergence herbicidal evaluation (Example 148); settings: rating scale 0-9, two to four weeks after treatment
How it was run: as §1

[5] = system: GLXMA, Soybean, Glycine max, (L.) Merr.; test: Preemergence herbicidal evaluation (Example 148); settings: rating scale 0-9, two to four weeks after treatment
How it was run: as §1

[6] = system: CHEAL, Lambsquarters, Chenopodium album, L. Common; test: Preemergence herbicidal evaluation (Example 148); settings: rating scale 0-9, two to four weeks after treatment
How it was run: as §1

[7] = system: ABUTH, Velvetleaf, Abutilon theophrasti, Medic.; test: Preemergence herbicidal evaluation (Example 148); settings: rating scale 0-9, two to four weeks after treatment
How it was run: as §1

[8] = system: AMBEL, Ragweed, Common, Ambrosia artemiisifolia, L.; test: Preemergence herbicidal evaluation (Example 148); settings: rating scale 0-9, two to four weeks after treatment
How it was run: as §1

[9] = system: IPOHE, Morningglory, Ivyleaf, Ipomoea hederacea, (L)Jacq.; test: Preemergence herbicidal evaluation (Example 148); settings: rating scale 0-9, two to four weeks after treatment
How it was run: as §1

[10] = system: TRZAW, Winter wheat, Tritium Aestivum, L. (Winter); test: Preemergence herbicidal evaluation (Example 148); settings: rating scale 0-9, two to four weeks after treatment
How it was run: as §1

[11] = system: SETVI, Green foxtail, Setaria viridis, (L.)Beau; test: Preemergence herbicidal evaluation (Example 148); settings: rating scale 0-9, two to four weeks after treatment
How it was run: as §1

[12] = system: ZEAMX, Field corn, Zea mays L.; test: Preemergence herbicidal evaluation (Example 148); settings: rating scale 0-9, two to four weeks after treatment
How it was run: as §1

[13] = system: ALOMY, Blackgrass, Alopecurus myosuroides; test: Postemergence herbicidal evaluation (Example 147); settings: rating scale 0-9, two to three weeks after treatment
How it was run: (§2)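 Plants at about two weeks from sowing received a foliar spray of test compound equivalent to roughly 0.016 to 0.032 kg per hectare. The carrier was 80/20 acetone/water containing 1.0% methylated seed oil. Injury was scored on a 0-9 visual scale two to three weeks later.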

[14] = system: DIGSA, Crabgrass, (Hairy) L, Digitaria sanguinalis, (L)Scop; test: Postemergence herbicidal evaluation (Example 147); settings: rating scale 0-9, two to three weeks after treatment
How it was run: as §2

[15] = system: ECHCG, Barnyardgrass, Echinochloa crusgalli, (L.)Beau; test: Postemergence herbicidal evaluation (Example 147); settings: rating scale 0-9, two to three weeks after treatment
How it was run: as §2

[16] = system: XANST, Cocklebur, Xanthium strumariam; test: Postemergence herbicidal evaluation (Example 147); settings: rating scale 0-9, two to three weeks after treatment
How it was run: as §2

[17] = system: GLXMA, Soybean, Glycine max, (L.) Merr.; test: Postemergence herbicidal evaluation (Example 147); settings: rating scale 0-9, two to three weeks after treatment
How it was run: as §2

[18] = system: CHEAL, Lambsquarters, Chenopodium album, L. Common; test: Postemergence herbicidal evaluation (Example 147); settings: rating scale 0-9, two to three weeks after treatment
How it was run: as §2

[19] = system: ABUTH, Velvetleaf, Abutilon theophrasti, Medic.; test: Postemergence herbicidal evaluation (Example 147); settings: rating scale 0-9, two to three weeks after treatment
How it was run: as §2

[20] = system: AMBEL, Ragweed, Common, Ambrosia artemiisifolia, L.; test: Postemergence herbicidal evaluation (Example 147); settings: rating scale 0-9, two to three weeks after treatment
How it was run: as §2

[21] = system: IPOHE, Morningglory, Ivyleaf, Ipomoea hederacea, (L)Jacq.; test: Postemergence herbicidal evaluation (Example 147); settings: rating scale 0-9, two to three weeks after treatment
How it was run: as §2

[22] = system: TRZAW, Winter wheat, Tritium Aestivum, L. (Winter); test: Postemergence herbicidal evaluation (Example 147); settings: rating scale 0-9, two to three weeks after treatment
How it was run: as §2

[23] = system: SETVI, Green foxtail, Setaria viridis, (L.)Beau; test: Postemergence herbicidal evaluation (Example 147); settings: rating scale 0-9, two to three weeks after treatment
How it was run: as §2

[24] = system: ZEAMX, Field corn, Zea mays L.; test: Postemergence herbicidal evaluation (Example 147); settings: rating scale 0-9, two to three weeks after treatment
How it was run: as §2

SMILES: CN(Cc1cccc(Cl)c1)S(=O)(=O)NC(=O)c1cc(-n2c(=O)cc(C(F)(F)F)n(C)c2=O)c(F)cc1Cl [Example 55]
- Preemergence herbicidal rating ALMOY ([1]; rate 0.125 kg/ha): 0.0
- Preemergence herbicidal rating ALMOY ([1]; rate 0.25 kg/ha): 0.0
- Preemergence herbicidal rating DIGSA ([2]; rate 0.125 kg/ha): 8.0
- Preemergence herbicidal rating DIGSA ([2]; rate 0.25 kg/ha): 8.0
- Preemergence herbicidal rating ECHCG ([3]; rate 0.125 kg/ha): 5.0
- Preemergence herbicidal rating ECHCG ([3]; rate 0.25 kg/ha): 9.0
- Preemergence herbicidal rating XANST ([4]; rate 0.125 kg/ha): 6.0
- Preemergence herbicidal rating XANST ([4]; rate 0.25 kg/ha): 7.0
- Preemergence herbicidal rating GLXMA ([5]; rate 0.125 kg/ha): 8.0
- Preemergence herbicidal rating GLXMA ([5]; rate 0.25 kg/ha): 8.0
- Preemergence herbicidal rating CHEAL ([6]; rate 0.125 kg/ha): 8.0
- Preemergence herbicidal rating CHEAL ([6]; rate 0.25 kg/ha): 9.0
- Preemergence herbicidal rating ABUTH ([7]; rate 0.125 kg/ha): 9.0
- Preemergence herbicidal rating ABUTH ([7]; rate 0.25 kg/ha): 9.0
- Preemergence herbicidal rating AMBEL ([8]; rate 0.125 kg/ha): 8.0
- Preemergence herbicidal rating AMBEL ([8]; rate 0.25 kg/ha): 9.0
- Preemergence herbicidal rating IPOHE ([9]; rate 0.125 kg/ha): 8.0
- Preemergence herbicidal rating IPOHE ([9]; rate 0.25 kg/ha): 9.0
- Preemergence herbicidal rating TRZAW ([10]; rate 0.125 kg/ha): 1.0
- Preemergence herbicidal rating TRZAW ([10]; rate 0.25 kg/ha): 2.0
- Preemergence herbicidal rating SETVI ([11]; rate 0.125 kg/ha): 6.0
- Preemergence herbicidal rating SETVI ([11]; rate 0.25 kg/ha): 8.0
- Preemergence herbicidal rating ZEAMX ([12]; rate 0.125 kg/ha): 0.0
- Preemergence herbicidal rating ZEAMX ([12]; rate 0.25 kg/ha): 1.0
- Postemergence herbicidal rating ALMOY ([13]; rate 0.016 kg/ha): 2.0
- Postemergence herbicidal rating ALMOY ([13]; rate 0.032 kg/ha): 2.0
- Postemergence herbicidal rating DIGSA ([14]; rate 0.016 kg/ha): 5.0
- Postemergence herbicidal rating DIGSA ([14]; rate 0.032 kg/ha): 6.0
- Postemergence herbicidal rating ECHCG ([15]; rate 0.016 kg/ha): 7.0
- Postemergence herbicidal rating ECHCG ([15]; rate 0.032 kg/ha): 7.0
- Postemergence herbicidal rating XANST ([16]; rate 0.016 kg/ha): 9.0
- Postemergence herbicidal rating XANST ([16]; rate 0.032 kg/ha): 8.0
- Postemergence herbicidal rating GLXMA ([17]; rate 0.016 kg/ha): 8.0
- Postemergence herbicidal rating GLXMA ([17]; rate 0.032 kg/ha): 8.0
- Postemergence herbicidal rating CHEAL ([18]; rate 0.016 kg/ha): 7.0
- Postemergence herbicidal rating CHEAL ([18]; rate 0.032 kg/ha): 7.0
- Postemergence herbicidal rating ABUTH ([19]; rate 0.016 kg/ha): 9.0
- Postemergence herbicidal rating ABUTH ([19]; rate 0.032 kg/ha): 9.0
- Postemergence herbicidal rating AMBEL ([20]; rate 0.016 kg/ha): 8.0
- Postemergence herbicidal rating AMBEL ([20]; rate 0.032 kg/ha): 9.0
- Postemergence herbicidal rating IPOHE ([21]; rate 0.016 kg/ha): 8.0
- Postemergence herbicidal rating IPOHE ([21]; rate 0.032 kg/ha): 9.0
- Postemergence herbicidal rating TRZAW ([22]; rate 0.016 kg/ha): 6.0
- Postemergence herbicidal rating TRZAW ([22]; rate 0.032 kg/ha): 6.0
- Postemergence herbicidal rating SETVI ([23]; rate 0.016 kg/ha): 7.0
- Postemergence herbicidal rating SETVI ([23]; rate 0.032 kg/ha): 8.0
- Postemergence herbicidal rating ZEAMX ([24]; rate 0.016 kg/ha): 8.0
- Postemergence herbicidal rating ZEAMX ([24]; rate 0.032 kg/ha): 8.0

SMILES: CNS(=O)(=O)NC(=O)c1cc(-n2c(=O)cc(C(F)(F)F)n(C)c2=O)c(F)cc1Cl [Example 56]
- Preemergence herbicidal rating ALMOY ([1]; rate 0.125 kg/ha): 0.0
- Preemergence herbicidal rating ALMOY ([1]; rate 0.25 kg/ha): 0.0
- Preemergence herbicidal rating DIGSA ([2]; rate 0.125 kg/ha): 7.0
- Preemergence herbicidal rating DIGSA ([2]; rate 0.25 kg/ha): 7.0
- Preemergence herbicidal rating ECHCG ([3]; rate 0.125 kg/ha): 3.0
- Preemergence herbicidal rating ECHCG ([3]; rate 0.25 kg/ha): 7.0
- Preemergence herbicidal rating XANST ([4]; rate 0.125 kg/ha): 8.0
- Preemergence herbicidal rating XANST ([4]; rate 0.25 kg/ha): 9.0
- Preemergence herbicidal rating GLXMA ([5]; rate 0.125 kg/ha): 2.0
- Preemergence herbicidal rating GLXMA ([5]; rate 0.25 kg/ha): 9.0
- Preemergence herbicidal rating CHEAL ([6]; rate 0.125 kg/ha): 9.0
- Preemergence herbicidal rating CHEAL ([6]; rate 0.25 kg/ha): 9.0
- Preemergence herbicidal rating ABUTH ([7]; rate 0.125 kg/ha): 9.0
- Preemergence herbicidal rating ABUTH ([7]; rate 0.25 kg/ha): 9.0
- Preemergence herbicidal rating AMBEL ([8]; rate 0.125 kg/ha): 9.0
- Preemergence herbicidal rating AMBEL ([8]; rate 0.25 kg/ha): 9.0
- Preemergence herbicidal rating IPOHE ([9]; rate 0.125 kg/ha): 8.0
- Preemergence herbicidal rating IPOHE ([9]; rate 0.25 kg/ha): 9.0
- Preemergence herbicidal rating TRZAW ([10]; rate 0.125 kg/ha): 0.0
- Preemergence herbicidal rating TRZAW ([10]; rate 0.25 kg/ha): 0.0
- Preemergence herbicidal rating SETVI ([11]; rate 0.125 kg/ha): 4.0
- Preemergence herbicidal rating SETVI ([11]; rate 0.25 kg/ha): 8.0
- Preemergence herbicidal rating ZEAMX ([12]; rate 0.125 kg/ha): 0.0
- Preemergence herbicidal rating ZEAMX ([12]; rate 0.25 kg/ha): 2.0
- Postemergence herbicidal rating ALMOY ([13]; rate 0.016 kg/ha): 2.0
- Postemergence herbicidal rating ALMOY ([13]; rate 0.032 kg/ha): 2.0
- Postemergence herbicidal rating DIGSA ([14]; rate 0.016 kg/ha): 3.0
- Postemergence herbicidal rating DIGSA ([14]; rate 0.032 kg/ha): 5.0
- Postemergence herbicidal rating ECHCG ([15]; rate 0.016 kg/ha): 7.0
- Postemergence herbicidal rating ECHCG ([15]; rate 0.032 kg/ha): 7.0
- Postemergence herbicidal rating XANST ([16]; rate 0.016 kg/ha): 9.0
- Postemergence herbicidal rating XANST ([16]; rate 0.032 kg/ha): 9.0
- Postemergence herbicidal rating GLXMA ([17]; rate 0.016 kg/ha): 8.5
- Postemergence herbicidal rating GLXMA ([17]; rate 0.032 kg/ha): 8.5
- Postemergence herbicidal rating CHEAL ([18]; rate 0.016 kg/ha): 7.0
- Postemergence herbicidal rating CHEAL ([18]; rate 0.032 kg/ha): 7.0
- Postemergence herbicidal rating ABUTH ([19]; rate 0.016 kg/ha): 9.0
- Postemergence herbicidal rating ABUTH ([19]; rate 0.032 kg/ha): 9.0
- Postemergence herbicidal rating AMBEL ([20]; rate 0.016 kg/ha): 8.0
- Postemergence herbicidal rating AMBEL ([20]; rate 0.032 kg/ha): 9.0
- Postemergence herbicidal rating IPOHE ([21]; rate 0.016 kg/ha): 9.0
- Postemergence herbicidal rating IPOHE ([21]; rate 0.032 kg/ha): 9.0
- Postemergence herbicidal rating TRZAW ([22]; rate 0.016 kg/ha): 4.0
- Postemergence herbicidal rating TRZAW ([22]; rate 0.032 kg/ha): 5.0
- Postemergence herbicidal rating SETVI ([23]; rate 0.016 kg/ha): 6.0
- Postemergence herbicidal rating SETVI ([23]; rate 0.032 kg/ha): 7.0
- Postemergence herbicidal rating ZEAMX ([24]; rate 0.016 kg/ha): 7.5
- Postemergence herbicidal rating ZEAMX ([24]; rate 0.032 kg/ha): 8.0
